O=C(O)CCCCCC(=O)O
Conditions	solubility (mole fraction)
in THF, 298.95 K	0.191
in THF, 300.55 K	0.198
in THF, 302.15 K	0.204
in THF, 303.65 K	0.211
in THF, 305.15 K	0.218
in THF, 307.95 K	0.231
in THF, 309.05 K	0.235
in THF, 311.75 K	0.25
in THF, 313.75 K	0.259
in THF, 315.75 K	0.271
in THF, 317.75 K	0.282
in THF, 320.25 K	0.296
in THF, 321.65 K	0.306
in THF, 323.05 K	0.316
in diethyl ether, 278.95 K	0.0091
in diethyl ether, 281.95 K	0.0102
in diethyl ether, 284.65 K	0.0112
in diethyl ether, 287.05 K	0.0122
in diethyl ether, 290.05 K	0.0137
in diethyl ether, 292.95 K	0.0152
in diethyl ether, 294.75 K	0.0165
in diethyl ether, 296.35 K	0.018
in diethyl ether, 299.15 K	0.0199
in diethyl ether, 301.55 K	0.0222
in ethanol, 298.45 K	0.121
in ethanol, 301.45 K	0.131
in ethanol, 304.25 K	0.144
in ethanol, 305.75 K	0.151
in ethanol, 307.55 K	0.158
in ethanol, 310.25 K	0.172
in ethanol, 312.15 K	0.187
in ethanol, 314.85 K	0.202
in ethanol, 316.25 K	0.206
in ethanol, 317.95 K	0.219
in ethanol, 320.95 K	0.235
in ethanol, 323.55 K	0.248
in ethanol, 325.65 K	0.267
in ethanol, 327.55 K	0.281
in ethanol, 329.25 K	0.294
in methanol, 300.75 K	0.142
in methanol, 302.65 K	0.152
in methanol, 304.15 K	0.159
in methanol, 305.95 K	0.171
in methanol, 307.65 K	0.18
in methanol, 310.05 K	0.187
in methanol, 312.65 K	0.205
in methanol, 314.85 K	0.218
in methanol, 317.85 K	0.246
in methanol, 321.35 K	0.27
in methanol, 323.75 K	0.293
in methanol, 325.55 K	0.309
in methanol, 327.15 K	0.324
in methanol, 328.75 K	0.342

Reference: BigSolDB 2.1
